Data set [1] in a line: Stability in mammalian liver microsomes (Example D). It counts as in vitro ADME. The following applies: human liver microsomes 0.5 mg/mL, 0.5 μM compound, 37° C.; scaled from in vitro half-life (Obach method); linker comparators. Here is the method:
Compounds of Formula I were assessed for their stability in mammalian liver microsomes. A compound of Formula I (0.5 μM) was incubated with pooled mixed gender human liver microsomes (HLM) (0.5 mg/mL total protein) at 37° C. in the presence of an NADPH-generating system containing 50 mM, pH 7.4 potassium phosphate buffer, 3 mM magnesium chloride, 1 mM EDTA, 1 mM NADP, 5 mM glusose-6-phosphate, and 1 Unit/mL glucose-6-phosphate dehydrogenase. All concentrations were relative to the final incubation volume of 125 μL. Incubations were conducted at 37° C. for 0, 5, 10, 20, 40 and 60 minutes in a water bath and terminated by rapid mixing with 150 μL of ice-cold acetonitrile containing internal standard, and precipitated proteins were removed by centrifugation prior to LC-MS/MS analysis. Aliquots of the resulting supernatant fractions were analyzed by LC-MS/MS monitoring for depletion of parent compound. The resultant peak area ratio versus time data was fitted to a non-linear regression using XLfit Scientific Curve Fitting Software (IDBS Ltd., Surrey, UK) and half-life was calculated from the slope. Pharmacokinetic parameters were predicted using the method described by Obach et al (J. Pharmcol. Exp. Ther. 1997; 283:46.58). Briefly, values for intrinsic clearance were calculated from the in vitro half-life data and were then scaled to represent the clearance expected in the entire animal (human). Additional values calculated included predicted extraction ratio and predicted maximum bioavailability. For example, the O-linker has better metabolic stability relative to the methyl linker or the —CH2O-linker, as shown by the following comparators
For orientation: Liver microsomes are a subcellular fraction often used to study metabolism.

The next data set addresses recombinant human GPR52 (Homo sapiens, UniProt Q9Y2T5). Description: HTRF cAMP assay, GPR52 activity (Example A). It counts as cell-based. The following applies: for Emax: maximum cAMP at 10 μM or 31.6 μM test compound, as percentage of Emax of control compound 4-(3-(3-fluoro-5-(trifluoromethyl)benzyl)-5-methyl-4,5-dihydro-1H-1,2,4-triazol-1-yl)-2-methylbenzamide. An outline of the steps:
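Flp-In CHO cells stably expressing human GPR52 (20,000/well) incubated 30 min at room temperature with compound, cAMP then quantified by competitive HTRF. EC50 from nonlinear fits of cAMP-transformed data normalized to positive control; Emax is top plateau at 10 or 31.6 μM, given as % of a reference agonist's Emax.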

Where [2] appears, read: average EC50 (n=1 to 15), Flp-In-CHO cells stably expressing recombinant human GPR52, cAMP HTRF, read-out: EC50 (N=).

Like-named read-outs stand apart in the source and are kept apart here.

The values below come from patent US20260167615A1, “COMPOUNDS AND COMPOSITIONS AS GPR52 MODULATORS” (Neurocrine Biosciences, Inc., priority 2022, published 2026).

Chain of recombinant human GPR52 (Q9Y2T5 whole entry): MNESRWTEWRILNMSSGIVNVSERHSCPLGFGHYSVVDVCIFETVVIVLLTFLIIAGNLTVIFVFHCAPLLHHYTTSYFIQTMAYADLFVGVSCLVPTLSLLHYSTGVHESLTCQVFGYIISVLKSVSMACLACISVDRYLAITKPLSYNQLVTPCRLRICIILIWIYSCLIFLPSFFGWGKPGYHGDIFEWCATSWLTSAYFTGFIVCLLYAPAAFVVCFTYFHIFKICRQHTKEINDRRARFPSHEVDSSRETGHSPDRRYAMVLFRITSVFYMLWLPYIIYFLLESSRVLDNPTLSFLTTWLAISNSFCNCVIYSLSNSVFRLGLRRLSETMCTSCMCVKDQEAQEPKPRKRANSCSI

Turning to `Cc1cc(-c2cc(COc3ccc4c(cnn4C)c3)ccn2)ccc1C(N)=O`, in data set [1], the “Metabolic stability - predicted systemic clearance” value is listed as “Metabolic stability - predicted systemic clearance (example D, above) is 12.3 ml/min/kg”.

As to `Cc1cc(-c2cc(Oc3ccc4cnn(C)c4c3)ccn2)ccc1C(N)=O` [drawing 281], in data set [1], the “Metabolic stability - predicted systemic clearance” value is “Metabolic stability - predicted systemic clearance (example D, above) is 3.6 ml/min/kg”.

Take `Cc1cc(-c2cc(Cc3ccc4cnn(C)c4c3)ccn2)ccc1C(N)=O`: in data set [1], the “Metabolic stability - predicted systemic clearance” value is “Metabolic stability - predicted systemic clearance (example D, above) is 11.3 ml/min/kg”.

As to `Cc1cc(-c2cc(Oc3ccc4c(cnn4C)c3)ccn2)ccc1C(N)=O` [drawing 283], the “Metabolic stability - predicted systemic clearance” value in data set [1] is recorded as “Metabolic stability - predicted systemic clearance (example D, above) is 8.0 ml/min/kg”.

In general, EC50 refers to the concentration giving half of the maximal effect. One may read the Emax as the size of the effect at its maximum, as opposed to the concentration needed. For `Cc1cc(-c2cc(Oc3ccc4cnn(C)c4c3)cc(N)n2)ccc1C(N)=O` [Example 21, 4-(6-amino-4-((1-methyl-1H-indazol-6-yl)oxy)pyridin-2-yl)-2-methylbenzamide], the EC50 at recombinant human GPR52 (setting [2]) lay within 0.101 to 1 µM. Further, on recombinant human GPR52, the maximal response (Emax) was 99%.

For `CCc1cc(-c2cc(Oc3ccc4cn[nH]c4c3)ccn2)ccc1C(N)=O` [Example 41, 4-(4-((1H-indazol-6-yl)oxy)pyridin-2-yl)-2-ethylbenzamide], the half-maximal effective concentration (EC50) on recombinant human GPR52 (setting [2]) lay in the range of 0.101 to 1 µM. The Emax at recombinant human GPR52 was determined as 125%.

Consider `CCc1cc(-c2cc(Oc3cc(F)c4ncc(F)cc4c3)ccn2)ccc1C(N)=O` [Example 120, 4-(4-((3,8-difluoroquinolin-6-yl)oxy)pyridin-2-yl)-2-ethylbenzamide], for which the concentration giving a half-maximal response (EC50) on recombinant human GPR52 (setting [2]) was 0.101 to 1 µM. Moreover, the maximal effect (Emax) at recombinant human GPR52 worked out at 155%.

Regarding `Cc1cc(-c2cc(Oc3ccc4c(C(F)(F)F)nn(C)c4c3)ccn2)ccc1C(N)=O` [Example 37, 2-methyl-4-(4-((1-methyl-3-(trifluoromethyl)-1H-indazol-6-yl)oxy)pyridin-2-yl)benzamide], the EC50 at recombinant human GPR52 (setting [2]) is 0.101 to 1 µM. The maximal effect (Emax) at recombinant human GPR52 was found to be 81%.

`Cc1cc(-c2ccnc(Oc3ccc4c(c3)c(C)nn4C)c2)ccc1C(N)=O`: the concentration for a half-maximal effect (EC50) on recombinant human GPR52 (comparison of position of the nitrogen in the pyridine ring relative to the oxygen linker, read-out: Activity EC50) worked out at 2.04 µM.

In the case of `Cc1cc(-c2cc(Oc3ccc4ncncc4c3)ccn2)ccc1C(N)=O` [Example 124, 2-methyl-4-(4-(quinazolin-6-yloxy)pyridin-2-yl)benzamide], the EC50 on recombinant human GPR52 (setting [2]) lay within 1 to 2 µM. Further, the Emax on recombinant human GPR52 is 100%.

In the case of `Cc1cc(-c2cc(Oc3ccc4c(C)nn(C)c4c3)cc(N)n2)ccc1C(N)=O` [Example 19, 4-(6-amino-4-((1,3-dimethyl-1H-indazol-6-yl)oxy)pyridin-2-yl)-2-methylbenzamide], on recombinant human GPR52 (setting [2]), the half-maximal effective concentration (EC50) fell in the range of 0.101 to 1 µM. Further, the maximal response (Emax) at recombinant human GPR52 is 90%.

Turning to `CCc1cc(-c2cc(Oc3cnc4c(C)nn(C)c4c3)ccn2)cc(F)c1C(N)=O` [Example 34, 4-(4-((1,3-dimethyl-1H-pyrazolo[4,3-b]pyridin-6-yl)oxy)pyridin-2-yl)-2-ethyl-6-fluorobenzamide], the EC50 at recombinant human GPR52 (setting [2]) lay in the range of 1 to 2 µM. In addition, the Emax on recombinant human GPR52 was 77%.

On to `CCc1cc(-c2cc(Oc3cnc4c(C(F)(F)F)nn(C)c4c3)ccn2)ccc1C(=O)NC` [Example 61, 2-ethyl-N-methyl-4-(4-((1-methyl-3-(trifluoromethyl)-1H-pyrazolo[4,3-b]pyridin-6-yl)oxy)pyridin-2-yl)benzamide], for which the EC50 on recombinant human GPR52 (setting [2]) was in the range of 0.101 to 1 µM. Further, the Emax at recombinant human GPR52 was 81%.

In the case of `Cc1cc(-c2cc(Oc3ccc4c(c3)OC(F)(F)O4)ccn2)ccc1C(N)=O` [Example 89, 4-(4-((2,2-difluorobenzo[d][1,3]dioxol-5-yl)oxy)pyridin-2-yl)-2-methylbenzamide], at recombinant human GPR52 (setting [2]), the EC50 lay in the range of 0.101 to 1 µM. The Emax on recombinant human GPR52 turned out to be 95%.

As to `Cc1cc(-c2cc(Oc3ccc4c(c3)OCO4)ccn2)ccc1C(N)=O` [Example 85, 4-(4-(benzo[d][1,3]dioxol-5-yloxy)pyridin-2-yl)-2-methylbenzamide], at recombinant human GPR52 (setting [2]), the EC50 lay within 0.101 to 1 µM. In addition, the maximum response (Emax) at recombinant human GPR52 was found to be 106%.

As to `Cc1cc(-c2cncc(Oc3ccc4cnn(C)c4c3)n2)ccc1C(N)=O` [Example 11, 2-methyl-4-(6-((1-methyl-1H-indazol-6-yl)oxy)pyrazin-2-yl)benzamide], on recombinant human GPR52 (setting [2]), the EC50 was in the range of 0.101 to 1 µM. Moreover, at recombinant human GPR52, the maximal effect (Emax) is 101%.

`Cc1cc(-c2cc(Oc3ccc4c(F)nn(C)c4c3)ccn2)ccc1C(N)=O` [Example 128, 4-(4-((3-fluoro-1-methyl-1H-indazol-6-yl)oxy)pyridin-2-yl)-2-methylbenzamide]: the EC50 at recombinant human GPR52 (setting [2]) fell in the range of 0.025 to 0.1 µM. At recombinant human GPR52, the maximal effect (Emax) is 118%.

Regarding `Cc1cc(-c2cc(Oc3cnc4c(F)cc(F)cc4c3)ccn2)ccc1C(N)=O` [Example 118, 4-(4-((6,8-difluoroquinolin-3-yl)oxy)pyridin-2-yl)-2-methylbenzamide], the EC50 at recombinant human GPR52 (setting [2]) lay within 0.101 to 1 µM. The Emax on recombinant human GPR52 was 85%.

In the case of `Cc1cc(-c2cc(Oc3cnc4ccc(Cl)cc4c3)ccn2)ccc1C(N)=O` [Example 111, 4-(4-((6-chloroquinolin-3-yl)oxy)pyridin-2-yl)-2-methylbenzamide], the EC50 at recombinant human GPR52 (setting [2]) lay in the range of 0.101 to 1 µM. Moreover, the Emax at recombinant human GPR52 is 88%.

For `Cc1cc(-c2cc(Oc3ccc4ncc(F)cc4c3)ccn2)ccc1C(N)=O` [Example 96, 4-(4-((3-fluoroquinolin-6-yl)oxy)pyridin-2-yl)-2-methylbenzamide], on recombinant human GPR52 (setting [2]), the EC50 lay within 0.101 to 1 µM. Besides, the maximum response (Emax) at recombinant human GPR52 was 120%.

For the compound `CCc1cc(-c2cccc(Oc3ccc4cnn(C)c4c3)c2)ccc1C(=O)NC` [Example 65, 3-ethyl-N-methyl-3′-((1-methyl-1H-indazol-6-yl)oxy)-[1,1′-biphenyl]-4-carboxamide], the concentration giving a half-maximal response (EC50) at recombinant human GPR52 (setting [2]) was 1 to 2 µM. On recombinant human GPR52, the Emax was 83%.
